Laboratory results taken from PubChem BioAssay (NCI).
Where “and” joins values, the source holds several entries; their conditions need not be identical. Equal entries are not always repeated.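 Briefly, cells in 96-well plates were exposed to five compound concentrations for 48 h, and endpoints were estimated by linear interpolation. Here, GI50 denotes the concentration required for 50% inhibition of growth. TGI marks complete inhibition of growth.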

Columns and labels:
Assay in all cases: NCI anticancer screen, dose series, 48 h
U251 CNS = tested on: U251 CNS
NCI-H23 lung = tested on: NCI-H23 lung
MOLT-4 leukemia = tested on: MOLT-4 leukemia
SNB-75 CNS = tested on: SNB-75 CNS
UO-31 renal = tested on: UO-31 renal
OVCAR-3 ovarian = tested on: OVCAR-3 ovarian
RPMI-8226 leukemia = tested on: RPMI-8226 leukemia
SF-539 CNS = tested on: SF-539 CNS
A498 renal = tested on: A498 renal
SF-268 CNS = tested on: SF-268 CNS

| SMILES | TGI (U251 CNS) | TGI (NCI-H23 lung) | TGI (MOLT-4 leukemia) | TGI (SNB-75 CNS) | TGI (UO-31 renal) | TGI (OVCAR-3 ovarian) | TGI (RPMI-8226 leukemia) | TGI (SF-539 CNS) | TGI (A498 renal) | TGI (SF-268 CNS) | GI50 (U251 CNS) | GI50 (NCI-H23 lung) | GI50 (MOLT-4 leukemia) | GI50 (SNB-75 CNS) | GI50 (UO-31 renal) | GI50 (OVCAR-3 ovarian) | GI50 (RPMI-8226 leukemia) | GI50 (SF-539 CNS) | GI50 (A498 renal) | GI50 (SF-268 CNS) |
| --- | --- | --- | --- | --- | --- | --- | --- | --- | --- | --- | --- | --- | --- | --- | --- | --- | --- | --- | --- | --- |
| Cc1c(C(=O)CC(=O)C(=O)Nc2cc(Cl)ccc2Cl)[n+](=O)c2ccccc2n1[O-] | > 100 µM | > 100 µM | 66.5 µM | 78.1 µM | > 100 µM | 61 µM | 57.8 µM | > 100 µM | > 100 µM | > 100 µM | – | – | – | – | – | – | – | – | – | – |
| CC(C(=O)O)c1ccc(-c2ccccc2)c(F)c1 (stereo not drawn) | > 100 µM | > 100 µM | > 100 µM | > 100 µM | > 100 µM | > 100 µM | > 100 µM | > 100 µM | > 100 µM | > 100 µM | – | – | – | – | – | – | – | – | – | – |
| Clc1ccc2ns[s+]c2c1 | > 100 µM | > 46.4 µM | > 100 µM | > 100 µM | > 66.8 µM | > 100 µM | > 100 µM | 37.8 µM | > 100 µM | > 100 µM | – | – | – | – | – | – | – | – | – | – |
| S=P(N1CCCC1)(N1CC1)N1CC1 | > 100 µM | > 100 µM | > 100 µM | > 100 µM | > 100 µM | > 100 µM | > 100 µM | > 100 µM | > 100 µM | > 100 µM | – | – | – | – | – | – | – | – | – | – |
| Oc1c(Cl)cc(Cl)cc1Sc1cc(Cl)cc(Cl)c1O | 11.2 µM and 10.5 µM | 10.8 µM and 7.76 µM | 11.7 µM and 13.1 µM | 14 µM and 7.61 µM | 11.6 µM and 9.32 µM | 11.3 µM and 10.2 µM | 8.93 µM and 16.8 µM | 16.1 µM and 11.8 µM | 5.52 µM and 5.19 µM | 17.3 µM and 14 µM | 3.01 µM and 2.74 µM | 2.56 µM and 2.34 µM | 3.8 µM and 2.55 µM | 3.47 µM and 2.57 µM | 2.46 µM and 2.02 µM | 3.66 µM and 2.96 µM | 3.13 µM and 2.49 µM | 3.46 µM and 3.4 µM | 1.81 µM and 1.87 µM | 4.4 µM and 3.44 µM |
| COC(=O)[C@H]1[C@H]2C[C@@H]3c4[nH]c5cc(OC)ccc5c4CCN3C[C@H]2C[C@@H](OC(=O)/C=C/c2cc(OC)c(OC)c(OC)c2)[C@@H]1OC | 14.6 µM | 53 µM | > 100 µM | 20.2 µM | 33.5 µM | 6.2 µM | 85.1 µM | 25.4 µM | 18.6 µM | > 100 µM | 3.58 µM | 17.6 µM | 3.33 µM | 5.19 µM | 9.63 µM | 2.62 µM | 4.05 µM | 12.5 µM | 4.23 µM | 9.48 µM |
| C/C(=C(/c1ccc(O)cc1)c1ccc(Cl)cc1)c1ccccc1 | 1.18 µM | 1.84 µM | 2.41 µM | 1.96 µM | 1.57 µM | 1.31 µM | 1.69 µM | 1.25 µM | 5.06 µM | 1.61 µM | 0.537 µM | 0.625 µM | 0.678 µM | 0.629 µM | 0.509 µM | 0.552 µM | 0.583 µM | 0.545 µM | 1.54 µM | 0.582 µM |
| CC12CC=CCC1CCC1C2CCC2(C)C(c3ccc(=O)oc3)CCC12O (stereo not drawn) | 0.337 µM | 0.33 µM | 0.113 µM | 0.302 µM | 0.225 µM | 0.282 µM | 0.756 µM | 0.184 µM | 0.54 µM | 0.268 µM | 0.127 µM | 0.0548 µM | 0.0292 µM | 0.0604 µM | 0.0988 µM | 0.0566 µM | 0.107 µM | 0.055 µM | 0.0768 µM | 0.0475 µM |
| Cc1c(Cl)cccc1NC(=O)/C(Cl)=C(\Cl)C(=O)O | 32.7 µM | 33.8 µM | 48.2 µM | 46.7 µM | 32.7 µM | 34.1 µM | 56.5 µM | 31.7 µM | > 100 µM | 40.9 µM | – | – | – | – | – | – | – | – | – | – |
| COc1cc2ncnc3c2cc1OCCCCCN(C)Cc1ccc(Br)cc1N3 | > 100 µM | > 100 µM | > 100 µM | 64 µM and > 10 µM | > 100 µM | > 100 µM | > 100 µM | > 100 µM | 17.3 µM and > 10 µM | > 100 µM | 34.3 µM and 5.33 µM | 40.8 µM and > 10 µM | 6.85 µM and 3.88 µM | 6.14 µM and 2.91 µM | 0.285 µM and 0.267 µM | 2.48 µM and 1.76 µM | 7.39 µM and 3.92 µM | > 100 µM | 1.35 µM and 0.539 µM | 29.5 µM and 4.01 µM |
| N=c1ccc2nc3c(cc(N)c4ccccc43)oc-2c1 | 0.664 µM | 0.523 µM | 1.05 µM | 0.654 µM | 0.958 µM | 0.0834 µM | 2.94 µM | 1.05 µM | 0.78 µM | 1.75 µM | 0.223 µM | 0.179 µM | 0.287 µM | 0.191 µM | 0.333 µM | 0.0265 µM | 0.427 µM | 0.293 µM | – | 0.431 µM |
| Cc1cc(=O)oc2cc(OC(=O)N(CCCl)CCCl)ccc12 | > 100 µM | > 100 µM | > 100 µM | > 100 µM | > 100 µM | > 100 µM | > 100 µM | > 100 µM | > 100 µM | > 100 µM | – | – | – | – | – | – | – | – | – | – |
| COC(=O)c1ccc(C(=O)OC)c2nc3cc(C)ccc3nc12 | > 100 µM | > 100 µM | > 100 µM | > 100 µM | > 100 µM | > 100 µM | > 100 µM | > 100 µM | > 100 µM | > 100 µM | – | – | – | – | – | – | – | – | – | – |
| CS(=O)(=O)NNS(=O)(=O)c1ccc(Cl)cc1 | > 100 µM | > 100 µM | > 100 µM | > 100 µM | > 100 µM | > 100 µM | > 100 µM | > 100 µM | > 100 µM | – | – | – | – | – | – | – | – | – | – | – |
| Nc1nc(N)nc(CC(=O)O)n1 | > 100 µM | > 100 µM | > 100 µM | > 100 µM | > 100 µM | > 100 µM | > 100 µM | > 100 µM | > 100 µM | > 100 µM | – | – | – | – | – | – | – | – | – | – |
| CNCCNc1nc2ccccc2c2c(=O)c3cc(OC)ccc3sc12 | 2.92 µM | 3.05 µM | 3.53 µM | 2.58 µM | 2.6 µM | 3.43 µM | 3.41 µM | 3.03 µM | 6.8 µM | 3.39 µM | 1.5 µM | 1.62 µM | 1.77 µM | 1.28 µM | 1.29 µM | 1.84 µM | 1.62 µM | 1.66 µM | 2.12 µM | 1.64 µM |
